# Patent publication US11814372B2, “Agonists of EPHA and their uses” (CASE WESTERN RESERVE UNIVERSITY, priority 2017, dated 2023)
# Legend:
# EphA3 = target: T1, EphA3 (Homo sapiens, UniProt P29320); assay: Eph receptor activation in HEK 293 cells overexpressing EphA3; assay type: cell-based; conditions: HEK 293 cells overexpressing EphA3, compared to EphA2 and EphA4
# T1 construct: expressed in transfected cells; host or cells: HEK 293
# T1 sequence (P29320 21-983): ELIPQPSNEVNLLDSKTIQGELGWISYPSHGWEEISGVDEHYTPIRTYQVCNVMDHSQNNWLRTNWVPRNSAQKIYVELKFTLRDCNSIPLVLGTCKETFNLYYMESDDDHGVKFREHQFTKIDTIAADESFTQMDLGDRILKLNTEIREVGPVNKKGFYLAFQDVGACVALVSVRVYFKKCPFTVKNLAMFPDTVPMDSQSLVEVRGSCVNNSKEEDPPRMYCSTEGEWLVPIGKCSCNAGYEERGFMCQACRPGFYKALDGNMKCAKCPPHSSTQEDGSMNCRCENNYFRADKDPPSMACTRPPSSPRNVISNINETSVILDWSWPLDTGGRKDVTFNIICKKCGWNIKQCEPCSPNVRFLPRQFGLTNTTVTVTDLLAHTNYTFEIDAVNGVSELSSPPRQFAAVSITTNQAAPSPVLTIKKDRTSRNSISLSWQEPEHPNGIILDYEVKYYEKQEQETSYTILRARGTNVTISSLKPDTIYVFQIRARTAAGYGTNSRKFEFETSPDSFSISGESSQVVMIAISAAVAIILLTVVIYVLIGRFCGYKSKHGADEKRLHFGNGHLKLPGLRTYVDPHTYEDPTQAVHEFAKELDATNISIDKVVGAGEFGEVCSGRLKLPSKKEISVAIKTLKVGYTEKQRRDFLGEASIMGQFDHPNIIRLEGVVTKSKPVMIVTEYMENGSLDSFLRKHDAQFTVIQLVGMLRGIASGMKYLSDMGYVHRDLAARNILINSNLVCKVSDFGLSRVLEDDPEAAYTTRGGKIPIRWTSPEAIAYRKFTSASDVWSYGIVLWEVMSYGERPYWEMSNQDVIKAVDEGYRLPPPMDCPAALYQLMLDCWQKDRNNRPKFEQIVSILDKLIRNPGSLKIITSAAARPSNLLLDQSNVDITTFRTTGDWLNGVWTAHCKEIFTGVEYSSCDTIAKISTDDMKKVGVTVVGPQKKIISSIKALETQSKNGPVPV
# Experimental: Cells were plated in 24-well dishes at a density of 100,000 cells/well and grown for 24 hours prior to stimulation with appropriate compounds and ephrins for the given amounts of time. Compounds were prepared in DMSO at 500 times the final concentrations and 0.2% DMSO was used as vehicle control. Following treatment, cells were lysed directly in SDS Gel Loading Buffer and immunoblotted as described previously. […] For this purpose, HEK 293 cell lines overexpressing EphA1, EphA2, EphA3, EphA4, and EphB3 kinases were utilized.
# ERK1/2 and Akt = assay: Inhibition of ERK1/2 and Akt activation in A172-A2 glioma cells (immunoblot); assay type: cell-based; conditions: 50 μM and 100 μM, 90 minutes
# Experimental: Cells were plated in 24-well dishes at a density of 100,000 cells/well and grown for 24 hours prior to stimulation with appropriate compounds and ephrins for the given amounts of time. Compounds were prepared in DMSO at 500 times the final concentrations and 0.2% DMSO was used as vehicle control. Following treatment, cells were lysed directly in SDS Gel Loading Buffer and immunoblotted as described previously. […] For immunoprecipitation, 300,000 cells/well were plated in 6-well dishes and lysed in modified RIPA Buffer (20 mM Tris-HCl pH 7.4, 20 mM NaF, 150 mM NaCl, 10% glycerol, 0.1% SDS, 0.5% DCA, 2 mM EDTA, 1% Triton X-100) following treatment. Either 10 ag of ephrin-A1-Fc, or 4 mg of EphA2 mouse monoclonal antibody (Clone D7, Millipore) were used, and mouse IgG was used as a negative control for EphA2 IP. […] We first tested this by utilizing the A172 glioma cells engineered to overexpress EphA2 receptor (A172-A2).
# A172-A2 glioma cells = assay: Haptotactic cell migration toward fibronectin (modified Boyden chamber); assay type: cell-based; conditions: 4 hours
# Source text: (§1) One of the well-established functions of Eph receptors is the ligand-dependent repulsive guidance of cell migration. As a ligand-mimicking agonist for EphA2, doxazosin is expected to activate EphA2 on tumor cells and repulse migrating tumor cells in vitro. To test this possibility, we first investigated the effects of doxazosin on integrin-mediated haptotactic cell migration toward fibronectin in a modified Boyden chamber cell migration assay. […] The inhibitory effects were observed when doxazosin was presented either in the bottom chamber, or in both top and bottom chambers in the Transwell assay system. […] Therefore, doxazosin can recapitulate a key function attributed to its native ligands, i.e., negative regulation of cell migration.
# [1] = system: MDA-MB-231 breast cancer cells; assay: as above; assay type: cell-based; conditions: MDA-MB-231 cells, 4 hours
# Source text: as §1
# PC3-DAB2IP KD cells = assay: as above; assay type: cell-based, human; conditions: 4 hours
# Source text: as §1
# EphA2 = EphA2 (Homo sapiens, UniProt P29317); assay: EphA2 activation in MDA-231-A2 cells (pEphA/B immunoblot, EphA2 immunoprecipitation); assay type: cell-based; set-up: expressed in transfected cells; host or cells: MDA-MB-231 (MDA-231-A2), HEK 293 (HEK 293-A2), A172 (A172-A2), U373 (U373-A2)
# EphA2, sequence (P29317 24-976): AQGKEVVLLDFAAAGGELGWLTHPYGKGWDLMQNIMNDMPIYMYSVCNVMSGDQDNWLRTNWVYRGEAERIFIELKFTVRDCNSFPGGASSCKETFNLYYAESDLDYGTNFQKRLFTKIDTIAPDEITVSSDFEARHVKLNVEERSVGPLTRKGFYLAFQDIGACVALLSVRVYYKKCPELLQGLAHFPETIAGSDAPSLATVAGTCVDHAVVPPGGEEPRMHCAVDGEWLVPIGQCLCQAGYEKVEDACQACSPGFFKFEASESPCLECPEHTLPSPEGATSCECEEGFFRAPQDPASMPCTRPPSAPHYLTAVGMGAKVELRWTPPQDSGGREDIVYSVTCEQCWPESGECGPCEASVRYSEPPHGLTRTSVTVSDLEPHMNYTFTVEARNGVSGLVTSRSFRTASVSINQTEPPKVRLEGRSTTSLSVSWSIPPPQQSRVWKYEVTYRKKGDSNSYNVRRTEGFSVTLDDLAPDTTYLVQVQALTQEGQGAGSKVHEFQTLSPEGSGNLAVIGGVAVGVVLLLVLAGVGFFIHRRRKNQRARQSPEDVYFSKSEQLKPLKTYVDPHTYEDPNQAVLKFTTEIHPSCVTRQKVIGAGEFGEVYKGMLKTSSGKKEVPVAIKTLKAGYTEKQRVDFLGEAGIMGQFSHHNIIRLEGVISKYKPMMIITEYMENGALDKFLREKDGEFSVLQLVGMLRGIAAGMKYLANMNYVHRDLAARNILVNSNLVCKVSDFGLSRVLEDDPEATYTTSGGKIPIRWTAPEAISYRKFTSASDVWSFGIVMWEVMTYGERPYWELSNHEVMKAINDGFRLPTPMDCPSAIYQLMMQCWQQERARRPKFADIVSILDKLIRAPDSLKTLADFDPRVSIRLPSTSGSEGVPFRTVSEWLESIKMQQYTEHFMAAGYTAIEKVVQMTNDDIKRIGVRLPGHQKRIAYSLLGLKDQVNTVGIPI
# Experimental: Cells were plated in 24-well dishes at a density of 100,000 cells/well and grown for 24 hours prior to stimulation with appropriate compounds and ephrins for the given amounts of time. Compounds were prepared in DMSO at 500 times the final concentrations and 0.2% DMSO was used as vehicle control. Following treatment, cells were lysed directly in SDS Gel Loading Buffer and immunoblotted as described previously. Immunoprecipitation and immunofluorescence staining was performed as described. For immunoprecipitation, 300,000 cells/well were plated in 6-well dishes and lysed in modified RIPA Buffer (20 mM Tris-HCl pH 7.4, 20 mM NaF, 150 mM NaCl, 10% glycerol, 0.1% SDS, 0.5% DCA, 2 mM EDTA, 1% Triton X-100) following treatment. Either […] of ephrin-A1-Fc, or […] of EphA2 mouse monoclonal antibody (Clone D7, Millipore) were used, and mouse IgG was used as a negative control for EphA2 IP. To identify small molecule agonists for EphA2, we took a structure-based in silico screening approach. […] This notion was confirmed recently by determination of the crystal structure of the EphA2/ephrin-A1 complex (FIG. 1B). The size falls in the range of common drugs, making EphA2 LBD a desirable target for drug discovery. Toward this end, we initiated in silico screening to search for small molecules that interact favorably with the ligand-binding pocket of EphA2 derived from molecular modeling before the crystal structure became available. Multiple conformations for each structure were generated with OMEGA (OpenEye) and each conformation was docked individually using DOCK. Our initial screening of over 750,000 compounds identified a number of small molecules that could potentially interact with the ligand-binding pocket. The commercially available top-scoring compounds were screened for their ability to induce EphA2 activation in MDAMB-231 breast cancer cells. Because MDA-MB-231 cells express endogenous EphA2 as well as other Eph receptors, including EphA1, we overexpressed EphA2 in order to minimize the contribution from other Eph receptors in our analysis. […] Total cell lysates were probed with a previously described antibody that recognizes the activated Eph receptors.
# [2] = MDA-231-A2 cells, single 50 μM dose
structure (smiles),measurement,setting,value
COc1cc2nc(N3CCN(C(=O)C4COc5ccccc5O4)CC3)nc(N)c2cc1OC (centres unmarked) [doxazosin],"EphA3 activation, Eph receptor panel",EphA3,weak
same,inhibition of Akt and ERK1/2 activation,ERK1/2 and Akt,significant inhibition of Akt and ERK1/2 activation
same,haptotactic cell migration toward fibronectin,A172-A2 glioma cells,dose-dependent inhibition of cell migration
same,haptotactic cell migration toward fibronectin,[1],dose-dependent inhibition of cell migration
same,haptotactic cell migration toward fibronectin,PC3-DAB2IP KD cells,dose-dependent inhibition of cell migration
same,EphA2 activation after phenoxybenzamine pretreatment versus no pretreatment,"EphA2; MDA-231-A2 cells pretreated with 1 μM phenoxybenzamine, then 1 hour treatment",No difference in EphA2 activation
same,"EphA2 activation, screening of top-scoring compounds","EphA2; MDA-231-A2 cells, compounds at 50 µM, 30 minutes",activated EphA2 to the greatest extent
same,EphA2 level after treatment,"EphA2; MDA-231-A2 cells, high doses",degradation of EphA2
same,"EphA2 activation, dose-response","EphA2; MDA-231-A2 cells, multiple doses, 30 minutes",dose-dependent manner
same,earliest time of significant EphA2 activation,EphA2; [2],5 min
same,time of peak EphA2 activation,EphA2; [2],around 30 min
